Source: patent US20120329711A1, “GLP-1 RECEPTOR AGONIST COMPOUNDS WITH A MODIFIED N-TERMINUS” (Nordisk A/S, priority 2009, published 2012)

Experiments:
human GLP-1 receptor [1] = target: T1, human GLP-1 receptor (Homo sapiens, UniProt P43220); assay: GLP-1 receptor binding: displacement of 125I-GLP-1 (SPA) at low and high albumin; set-up: expressed in transfected cells; membranes; conditions: 2.0% HSA; displacement of 125I-GLP-1, BHK tk-ts13 membranes
Description: The binding affinity of the GLP-1 receptor agonist derivatives of Examples 1-12 to the human GLP-1 receptor was measured by way of their ability to displace of ^125I-GLP-1 from the receptor.
In order to test the binding of the derivatives to albumin, the assay was performed with a low concentration of albumin (0.005%—corresponding to the residual amount thereof in the tracer), as well as with a high concentration of albumin (2.0% added).
Species (in vitro): Hamster
Biological End Point: Receptor Binding
A stable transfected cell line and a high expressing clone were selected for screening. The cells were grown at 5% CO2 in DMEM, 10% FCS, 1% Pen/Strep (Penicillin/Streptomycin) and 1.0 mg/ml of the selection marker G418.
The cells (approx. 80% confluence) were washed twice in PBS and harvested with Versene (aqueous solution of the tetrasodium salt of ethylenediaminetetraacetic acid), following which they were separated by centrifugation at 1000 rpm for 5 min. The cells/cell pellet must be kept on ice to the extent possible in the subsequent steps. […] The resulting pellet was resuspended in Buffer 2, and the protein concentration was determined. […]
Test compounds, membranes, SPA-particles and [^125I]-GLP-1(7-36)NH2 were diluted in assay buffer. […] The plates were centrifuged (1500 rpm, 10 min) and counted in Topcounter. […]

human GLP-1 receptor [2] = target: T1, human GLP-1 receptor; assay: In vitro potency: stimulation of cAMP formation in membranes expressing the human GLP-1 receptor (AlphaScreen cAMP Assay); type: biochemical; set-up: expressed in transfected cells; membranes; conditions: purified plasma membranes from BHK467-12A (tk-ts13) expressing the human GLP-1 receptor
Description: Purified plasma membranes from a stable transfected cell line, BHK467-12A (tk-ts13), expressing the human GLP-1 receptor were stimulated with the GLP-1 receptor agonist derivative in question, and the potency of cAMP production was measured using the AlphaScreen™ cAMP Assay Kit from Perkin Elmer Life Sciences. The basic principle of The AlphaScreen Assay is a competition between endogenous cAMP and exogenously added biotin-cAMP. The capture of cAMP is achieved by using a specific antibody conjugated to acceptor beads.
A stable transfected cell line and a high expressing clone were selected for screening. The cells were grown at 5% CO2 in DMEM, 5% FCS, 1% Pen/Strep (Penicillin/Streptomycin) and 0.5 mg/ml of the selection marker G418.
Cells at approximate 80% confluence were washed 2× with PBS and harvested with Versene (aqueous solution of the tetrasodium salt of ethylenediaminetetraacetic acid), centrifuged 5 min at 1000 rpm and the supernatant removed. The additional steps were all made on ice. The cell pellet was homogenised by the Ultrathurax for 20-30 sec. in 10 ml of Buffer 1 (20 mM Na-HEPES, 10 mM EDTA, pH=7.4), centrifuged 15 min at 20.000 rpm and the pellet resuspended in 10 ml of Buffer 2 (20 mM Na-HEPES, 0.1 mM EDTA, pH=7.4). […] The protein concentration was determined and the membranes stored at −80° C. until use. […]
Target sequence in this assay (P43220 24-463): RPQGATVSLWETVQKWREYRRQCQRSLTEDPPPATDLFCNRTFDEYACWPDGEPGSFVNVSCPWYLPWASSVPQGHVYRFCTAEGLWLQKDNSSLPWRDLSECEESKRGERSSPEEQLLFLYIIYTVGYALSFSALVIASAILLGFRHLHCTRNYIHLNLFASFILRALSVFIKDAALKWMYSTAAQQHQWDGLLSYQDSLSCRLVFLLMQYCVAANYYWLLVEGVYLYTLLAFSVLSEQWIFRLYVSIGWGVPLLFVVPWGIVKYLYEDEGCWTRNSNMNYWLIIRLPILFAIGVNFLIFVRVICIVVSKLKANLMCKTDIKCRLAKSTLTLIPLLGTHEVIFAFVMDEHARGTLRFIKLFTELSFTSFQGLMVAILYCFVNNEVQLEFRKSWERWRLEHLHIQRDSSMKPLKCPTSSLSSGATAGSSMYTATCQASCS

IC50 (human GLP-1 receptor [1]): > 800 nM
EC50 (human GLP-1 receptor [2]): > 8 nM
Structure (SMILES): CC[C@H](C)[C@H](NC(=O)[C@H](Cc1ccccc1)NC(=O)[C@H](CCC(=O)O)NC(=O)[C@H](CCCCNC(=O)COCCOCCNC(=O)COCCOCCNC(=O)CC[C@H](NC(=O)CCCCCCCCCCCCCCCCC(=O)O)C(=O)O)NC(=O)[C@H](C)NC(=O)[C@H](C)NC(=O)[C@H](CCC(N)=O)NC(=O)CNC(=O)[C@H](CCC(=O)O)NC(=O)[C@H](CC(C)C)NC(=O)[C@H](Cc1ccc(O)cc1)NC(=O)[C@H](CO)NC(=O)[C@H](CO)NC(=O)[C@@H](NC(=O)[C@H](CC(=O)O)NC(=O)[C@H](CO)NC(=O)[C@@H](NC(=O)[C@H](Cc1ccccc1)NC(=O)[C@@H](NC(=O)CNC(=O)[C@H](CCC(=O)O)NC(=O)CCCC(=O)c1ccccc1)[C@@H](C)O)[C@@H](C)O)C(C)C)C(=O)N[C@@H](C)C(=O)N[C@@H](Cc1c[nH]c2ccccc12)C(=O)N[C@@H](CC(C)C)C(=O)N[C@H](C(=O)N[C@@H](CCCNC(=N)N)C(=O)NCC(=O)N[C@@H](CCCNC(=N)N)C(=O)NCC(=O)O)C(C)C [Example 11, N^9-(5-oxo-5-phenylpentanoyl), N^ε26-[2-[2-[2-[[2-[2-[2-[[(4S)-4-carboxy-4-(17-carboxyheptadecanoylamino)butanoyl]amino]ethoxy]ethoxy]acetyl]amino]ethoxy]ethoxy]acetyl]-[Arg^34]-GLP-1-(9-37)-peptide]
